This note sets out measurements from US9896442B2, “Antifungal treatment” (Wisconsin Alumni Research Foundation, priority 2010, dated 2018).

Test [1] relates to Candida albicans biofilm. The test is described as follows: In vitro biofilm drug synergy (checkerboard, XTT). It counts as cell-based. The settings on record: alone and in combination. As for the experimental part: Candida biofilms were formed in 96-well flat-bottom polystyrene plates (Fischer) as described previously ([…], Crawford K, Andes D R. Optimizing a Candida Biofilm Microtiter Plate Model for Measurement of Antifungal Susceptibility by XTT Assay. J. Clin. Microbiol. 2011 Jan., 2). Cells from an overnight culture grown in YPD shaking at 37° C. were enumerated by hemocytometer and suspended in RPMI-MOPS (Fisher) at a concentration of 10^6 cells/ml. A 100 μl of inoculum was added to each well of the plate. After 6 h incubation at 37° C., biofilms were gently washed twice with phosphate-buffered saline (PBS) to remove unattached cells. […] The ranges of concentrations of the fluconazole used included the standard doses given to humans. After overnight incubation at 37° C., biofilms were washed twice with PBS. Measurement of biofilm cell metabolic activity using the XTT reduction assay was performed as previously described ([…], Crawford K, Andes D R. Optimizing a Candida Biofilm Microtiter Plate Model for Measurement of Antifungal Susceptibility by XTT Assay. J. Clin. Microbiol. 2011 January, […], and Andes D. Synergistic Effect of Calcineurin Inhibitors and Fluconazole against Candida albicans Biofilms. Antimicrob Agents Chemother. 2008 March; 52(3): 1127-1132). Briefly, 90 μl of XTT at 1 mg/ml (Sigma) and 10 μl phenazine methosulfate at 320 μg/ml (Sigma) were added to each well, and the plate was incubated at 37° C. for 2 h. Viable cell number was assessed using the Absorbance at 492nm measured using an automated plate reader. Assays were performed in duplicate. The drug concentration resulting in a 25% reduction in optical density compared to the no-drug control wells was determined (EC25).
For orientation: Formazan colour is commonly taken as a measure of viable cells.

The subject of test [2] is Candida albicans biofilms. The test is described as follows: Candida biofilm XTT reduction assay. It counts as cell-based. Conditions: 24 hours, FIG. 6. The method, then: Compound activity against C. albicans biofilm was assessed using a 96-well plate format as previously described by Nett et al. (15). Briefly, the C. albicans inoculum was prepared by diluting an overnight culture grown at 37° C. in RPMI-MOPS to 1×10^6 in RPMI-MOPS based on hemocytometer counts. An aliquot of 100 μl of the inoculum was added to each well of a 96-well flat-bottom polystyrene plate. After a 6-h incubation at 37° C., the wells were washed with phosphate-buffered saline (PBS) three times to remove any non-adherent cells. Fresh medium and fluconazole (Sigma), compound 13, and compound 33 were added and the plates were incubated at 37° C. for 24 hours. The XTT reduction assay was used to quantify the viability of biofilm cell as previously described (11). Briefly, 90 μl of (2,3)-bis-(2-Methoxy-4-Nitro-5-Sulphenyl)-(2H)-Tetrazolium-5-Carboxanilide (XTT; 1 mg/ml) (Sigma) and 10 μl phenazine methosulfate (320 μg/ml) (Sigma) were added to each well, and the plate was incubated for 2 h at 37° C. Cell viability was determined by measuring the absorbance at 490 nm using an automated plate reader. The biofilm growth assay was performed in duplicate.

In the case of `OC(Cn1cncn1)(Cn1cncn1)c1ccc(F)cc1F` [fluconazole, reference compound], the growth reduction in test [1] (FIG. 9A, compound 13 experiment: fluconazole at 62.5 ug/ml, 13 at 0.8 ug/ml) is 15%; in test [1] (FIG. 9B, compound 33 experiment: fluconazole at 62.5 ug/ml, 33 at 1.6 ug/ml), “approximately 6%”. Besides, the “Concentration inhibiting Candida biofilm growth” value in test [2] was > 1000 µg/mL.
